The numbers were not newly measured in patent US11779012B2, “Compositions and methods for preserving red blood cells and platelets” (RythRx Therapeutics, LLC, priority 2013, dated 2023), which cites them from elsewhere.

Broadly, the Kd is the constant that tells how readily two partners part at equilibrium.

Data set [1] concerns the target pleckstrin homology (PH) domain of Akt (Homo sapiens, UniProt P31749). The following applies: binding to PH domain of Akt.
The conditions of data set [2]: after intravenous administration.

Sequence of pleckstrin homology (PH) domain of Akt (P31749 5-108 limits assumed): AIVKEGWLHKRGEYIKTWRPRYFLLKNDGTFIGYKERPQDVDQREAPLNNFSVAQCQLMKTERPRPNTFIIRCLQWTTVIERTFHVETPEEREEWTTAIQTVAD

Consider `CN1N=C(N)c2cn([C@@H]3O[C@H](COP(=O)(O)O)[C@@H](O)[C@H]3O)c3ncnc1c23` [TCNP, ((2R,3S,4R,5R)-5-(3-amino-5-methyl-1,4,5,6,8-pentaazaacenaphthylen-1(5H)-yl)-3,4-dihydroxytetrahydrofuran-2-yl)methyl dihydrogen phosphate], for which the equilibrium dissociation constant (Kd) in data set [1] was 690 nM. The “half-life (retention of TCNP in human RBC)” value in data set [2] was 89 h.
